# ChEMBL document CHEMBL1201862, “PubChem BioAssay data set” (2004)
# The source made the active and inactive calls.
# Columns and labels:
# [1] = target: T1, Mannose-6-phosphate isomerase (Homo sapiens, UniProt P34949); test: human PMI inhibitors, high substrate, primary screen, biochemical, fluorescence intensity, high mannose 6-phosphate (AID 1220)
# T1 sequence (P34949 whole entry): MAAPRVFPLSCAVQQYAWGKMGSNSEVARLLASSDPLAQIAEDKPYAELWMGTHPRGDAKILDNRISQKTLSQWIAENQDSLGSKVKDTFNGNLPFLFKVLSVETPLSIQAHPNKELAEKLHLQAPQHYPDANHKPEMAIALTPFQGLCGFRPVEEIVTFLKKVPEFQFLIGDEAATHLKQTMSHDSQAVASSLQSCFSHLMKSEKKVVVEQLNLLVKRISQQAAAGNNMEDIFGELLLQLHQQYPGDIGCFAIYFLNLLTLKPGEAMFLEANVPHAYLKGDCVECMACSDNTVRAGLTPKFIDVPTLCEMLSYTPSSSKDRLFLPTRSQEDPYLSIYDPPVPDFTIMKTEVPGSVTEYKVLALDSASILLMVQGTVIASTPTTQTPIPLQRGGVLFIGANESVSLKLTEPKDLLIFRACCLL
# [2] = target: T2, Sentrin-specific protease 6 (Homo sapiens, UniProt Q9GZR1); type: functional;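 note: Luminescence-based dose-response confirmatory assay of SENP6 inhibition, following up an ultra-high-throughput screen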
# T2 sequence (Q9GZR1 whole entry): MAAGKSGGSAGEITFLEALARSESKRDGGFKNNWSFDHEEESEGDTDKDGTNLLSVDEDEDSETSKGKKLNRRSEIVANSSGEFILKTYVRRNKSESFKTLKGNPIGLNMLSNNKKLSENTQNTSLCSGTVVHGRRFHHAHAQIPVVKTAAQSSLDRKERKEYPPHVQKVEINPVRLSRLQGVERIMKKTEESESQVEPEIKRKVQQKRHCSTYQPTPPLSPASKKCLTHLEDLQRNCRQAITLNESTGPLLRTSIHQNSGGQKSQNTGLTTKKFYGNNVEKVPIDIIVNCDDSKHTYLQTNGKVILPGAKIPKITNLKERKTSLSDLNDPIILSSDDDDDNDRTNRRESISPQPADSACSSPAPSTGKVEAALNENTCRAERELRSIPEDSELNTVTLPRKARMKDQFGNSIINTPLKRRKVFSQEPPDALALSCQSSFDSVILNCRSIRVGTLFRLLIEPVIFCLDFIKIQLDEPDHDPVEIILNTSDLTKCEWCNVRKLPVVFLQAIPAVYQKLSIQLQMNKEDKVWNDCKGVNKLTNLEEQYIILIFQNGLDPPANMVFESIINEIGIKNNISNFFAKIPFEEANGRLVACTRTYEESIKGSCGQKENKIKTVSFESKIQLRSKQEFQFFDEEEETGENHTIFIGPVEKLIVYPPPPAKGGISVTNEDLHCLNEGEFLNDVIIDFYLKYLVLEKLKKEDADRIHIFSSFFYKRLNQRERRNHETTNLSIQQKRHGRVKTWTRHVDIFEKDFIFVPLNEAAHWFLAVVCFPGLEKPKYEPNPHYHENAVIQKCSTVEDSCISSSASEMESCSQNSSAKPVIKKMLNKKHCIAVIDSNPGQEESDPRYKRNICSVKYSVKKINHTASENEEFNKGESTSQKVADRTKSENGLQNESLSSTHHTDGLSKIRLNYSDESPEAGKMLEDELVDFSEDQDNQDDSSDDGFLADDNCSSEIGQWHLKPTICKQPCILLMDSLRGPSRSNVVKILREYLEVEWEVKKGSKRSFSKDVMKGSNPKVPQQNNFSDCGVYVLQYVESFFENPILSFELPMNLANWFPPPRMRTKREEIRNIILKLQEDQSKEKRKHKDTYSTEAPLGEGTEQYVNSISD
# [3] = target: Cyclin-dependent kinase 2 (Homo sapiens, UniProt P24941); type: functional;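 note: CDK2 measured as one member of a broad kinome profiling panel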
# Aurora kinase A = Aurora kinase A (Homo sapiens, UniProt O14965); type: functional;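 note: value from the Navigating the Kinome kinase panel profiling, panel entry STK6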
# [4] = target: Glycogen synthase kinase-3 alpha (Homo sapiens, UniProt P49840); type: functional;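 note: GSK3A result taken from a broad kinome-wide kinase panel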
# [5] = target: Casein kinase I isoform delta (Homo sapiens, UniProt P48730); type: functional;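 note: measured as one member (CSNK1D) of a kinome panel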
# [6] = target: Cyclin-dependent kinase 5 (Homo sapiens, UniProt Q00535); type: functional;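 note: CDK5 measured as one member of a kinase profiling panel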
# Ephrin type-A receptor 2 = Ephrin type-A receptor 2 (Homo sapiens, UniProt P29317); type: functional;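 note: EPHA2 tested as one member of a kinome-wide kinase panel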
# [7] = target: Vascular endothelial growth factor receptor 3 (Homo sapiens, UniProt P35916); type: functional;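 note: value from a kinome-wide profiling panel, with FLT4 as the panel member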
# [8] = target: Inhibitor of nuclear factor kappa-B kinase subunit beta (Homo sapiens, UniProt O14920); type: functional
# Insulin-degrading enzyme = target: T3, Insulin-degrading enzyme (Homo sapiens, UniProt P14735); test: activators of recombinant IDE enzyme, dose response, counter-screen for IDE activator project, biochemical, fluorescence polarization (AID 588681)
# T3 sequence (P14735 whole entry): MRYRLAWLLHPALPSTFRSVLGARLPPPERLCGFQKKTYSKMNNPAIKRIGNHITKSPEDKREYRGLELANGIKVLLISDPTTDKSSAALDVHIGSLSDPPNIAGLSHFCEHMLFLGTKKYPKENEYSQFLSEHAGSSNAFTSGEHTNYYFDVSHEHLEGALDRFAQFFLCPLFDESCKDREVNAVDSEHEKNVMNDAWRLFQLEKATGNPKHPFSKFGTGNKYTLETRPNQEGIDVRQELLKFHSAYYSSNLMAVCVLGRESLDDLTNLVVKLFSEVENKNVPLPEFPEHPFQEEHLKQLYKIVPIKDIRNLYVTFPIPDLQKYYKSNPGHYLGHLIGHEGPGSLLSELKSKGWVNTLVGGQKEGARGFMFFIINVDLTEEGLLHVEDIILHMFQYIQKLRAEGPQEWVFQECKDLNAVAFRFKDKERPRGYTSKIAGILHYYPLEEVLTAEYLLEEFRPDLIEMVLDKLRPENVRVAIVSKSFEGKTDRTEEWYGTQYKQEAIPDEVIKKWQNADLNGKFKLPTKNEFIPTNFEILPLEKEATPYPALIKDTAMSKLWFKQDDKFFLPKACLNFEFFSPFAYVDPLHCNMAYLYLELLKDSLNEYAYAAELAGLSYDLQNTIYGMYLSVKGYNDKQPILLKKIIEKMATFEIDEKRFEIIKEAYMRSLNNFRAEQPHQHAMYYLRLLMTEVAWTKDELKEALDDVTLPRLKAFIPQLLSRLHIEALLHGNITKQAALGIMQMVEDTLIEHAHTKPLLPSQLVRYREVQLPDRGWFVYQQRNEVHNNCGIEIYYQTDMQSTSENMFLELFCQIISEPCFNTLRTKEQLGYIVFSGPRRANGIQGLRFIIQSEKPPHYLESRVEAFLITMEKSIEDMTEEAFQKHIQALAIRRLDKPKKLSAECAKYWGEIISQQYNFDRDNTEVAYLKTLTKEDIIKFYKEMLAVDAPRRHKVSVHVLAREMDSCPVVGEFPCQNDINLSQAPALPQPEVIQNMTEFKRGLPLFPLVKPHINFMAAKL
# Chain of Aurora kinase A (O14965 whole entry): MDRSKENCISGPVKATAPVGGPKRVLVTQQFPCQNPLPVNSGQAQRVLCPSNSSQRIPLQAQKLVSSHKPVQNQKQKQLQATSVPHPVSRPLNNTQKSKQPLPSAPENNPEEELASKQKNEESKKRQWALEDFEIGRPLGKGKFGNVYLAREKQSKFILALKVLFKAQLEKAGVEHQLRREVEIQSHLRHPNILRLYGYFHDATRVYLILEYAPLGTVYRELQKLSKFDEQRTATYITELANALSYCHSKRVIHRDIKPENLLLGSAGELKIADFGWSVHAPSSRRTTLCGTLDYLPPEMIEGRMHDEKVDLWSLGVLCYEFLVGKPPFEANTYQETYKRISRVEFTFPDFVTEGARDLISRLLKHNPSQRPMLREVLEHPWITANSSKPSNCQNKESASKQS
# Chain of Cyclin-dependent kinase 5 (Q00535 whole entry): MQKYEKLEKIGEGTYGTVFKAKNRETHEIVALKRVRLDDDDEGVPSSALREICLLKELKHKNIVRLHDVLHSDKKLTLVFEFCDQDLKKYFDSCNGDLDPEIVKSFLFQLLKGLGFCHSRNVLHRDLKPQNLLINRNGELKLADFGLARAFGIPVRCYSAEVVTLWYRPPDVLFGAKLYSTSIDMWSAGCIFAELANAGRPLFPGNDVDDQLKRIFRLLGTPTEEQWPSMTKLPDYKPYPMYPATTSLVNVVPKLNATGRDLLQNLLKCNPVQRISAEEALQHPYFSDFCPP
# Chain of Casein kinase I isoform delta (P48730 whole entry, canonical isoform): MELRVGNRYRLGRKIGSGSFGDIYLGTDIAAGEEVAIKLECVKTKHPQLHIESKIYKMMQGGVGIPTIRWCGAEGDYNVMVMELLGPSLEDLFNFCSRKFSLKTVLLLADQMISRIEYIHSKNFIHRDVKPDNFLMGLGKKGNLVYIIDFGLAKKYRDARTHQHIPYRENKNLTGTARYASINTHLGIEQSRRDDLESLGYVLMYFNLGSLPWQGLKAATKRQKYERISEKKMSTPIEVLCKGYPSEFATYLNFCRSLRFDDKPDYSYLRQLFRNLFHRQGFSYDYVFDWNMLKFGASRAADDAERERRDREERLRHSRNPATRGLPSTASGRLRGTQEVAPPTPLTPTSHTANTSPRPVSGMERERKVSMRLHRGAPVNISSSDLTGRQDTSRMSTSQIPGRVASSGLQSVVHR
# Chain of Vascular endothelial growth factor receptor 3 (P35916 whole entry): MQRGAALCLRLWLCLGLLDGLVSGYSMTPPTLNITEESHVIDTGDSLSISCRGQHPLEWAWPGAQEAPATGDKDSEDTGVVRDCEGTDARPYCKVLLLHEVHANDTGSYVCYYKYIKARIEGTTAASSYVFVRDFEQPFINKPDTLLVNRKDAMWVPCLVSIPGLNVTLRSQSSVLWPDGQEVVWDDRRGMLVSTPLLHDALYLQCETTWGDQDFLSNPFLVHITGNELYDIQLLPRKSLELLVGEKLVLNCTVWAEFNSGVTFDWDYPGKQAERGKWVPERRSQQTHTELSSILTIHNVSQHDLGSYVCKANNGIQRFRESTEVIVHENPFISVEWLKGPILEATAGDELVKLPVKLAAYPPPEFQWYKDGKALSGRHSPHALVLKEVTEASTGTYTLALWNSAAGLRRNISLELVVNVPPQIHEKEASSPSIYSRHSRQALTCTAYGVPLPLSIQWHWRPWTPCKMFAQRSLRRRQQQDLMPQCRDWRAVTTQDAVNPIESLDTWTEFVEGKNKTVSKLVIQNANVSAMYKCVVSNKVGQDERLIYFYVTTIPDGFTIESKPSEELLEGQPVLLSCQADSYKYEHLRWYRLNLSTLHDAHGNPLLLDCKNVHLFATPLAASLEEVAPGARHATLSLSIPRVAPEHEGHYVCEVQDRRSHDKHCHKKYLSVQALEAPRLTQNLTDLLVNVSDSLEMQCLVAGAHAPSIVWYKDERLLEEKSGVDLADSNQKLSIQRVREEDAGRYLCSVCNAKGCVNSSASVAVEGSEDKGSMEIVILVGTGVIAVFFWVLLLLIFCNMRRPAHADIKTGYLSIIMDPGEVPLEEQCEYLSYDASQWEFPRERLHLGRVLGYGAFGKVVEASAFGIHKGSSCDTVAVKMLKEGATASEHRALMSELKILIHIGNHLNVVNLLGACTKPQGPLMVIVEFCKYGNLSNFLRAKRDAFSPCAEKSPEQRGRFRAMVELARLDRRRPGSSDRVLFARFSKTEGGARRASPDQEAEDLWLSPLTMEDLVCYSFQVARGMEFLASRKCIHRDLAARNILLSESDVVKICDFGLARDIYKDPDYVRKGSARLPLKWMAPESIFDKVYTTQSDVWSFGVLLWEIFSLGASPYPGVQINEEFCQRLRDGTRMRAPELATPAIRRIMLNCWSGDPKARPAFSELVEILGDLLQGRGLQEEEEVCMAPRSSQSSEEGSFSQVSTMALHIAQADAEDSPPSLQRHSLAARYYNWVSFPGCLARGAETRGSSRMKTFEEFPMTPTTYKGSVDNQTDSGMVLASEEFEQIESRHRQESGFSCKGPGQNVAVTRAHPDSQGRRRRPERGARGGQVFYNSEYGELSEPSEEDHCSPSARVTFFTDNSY
# Chain of Glycogen synthase kinase-3 alpha (P49840 whole entry, canonical isoform): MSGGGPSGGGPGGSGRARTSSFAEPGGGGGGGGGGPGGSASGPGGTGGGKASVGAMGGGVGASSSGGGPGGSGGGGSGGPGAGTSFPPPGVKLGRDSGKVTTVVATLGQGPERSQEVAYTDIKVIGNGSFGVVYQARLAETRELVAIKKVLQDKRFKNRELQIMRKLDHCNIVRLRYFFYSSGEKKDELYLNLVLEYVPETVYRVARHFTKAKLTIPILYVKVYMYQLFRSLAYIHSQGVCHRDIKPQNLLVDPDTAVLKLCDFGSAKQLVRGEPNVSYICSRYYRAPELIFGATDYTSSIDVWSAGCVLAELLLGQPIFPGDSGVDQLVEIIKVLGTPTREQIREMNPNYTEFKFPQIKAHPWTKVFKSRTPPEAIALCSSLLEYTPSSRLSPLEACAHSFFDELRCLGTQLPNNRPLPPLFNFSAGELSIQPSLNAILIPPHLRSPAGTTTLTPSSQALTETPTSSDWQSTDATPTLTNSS
# Chain of Inhibitor of nuclear factor kappa-B kinase subunit beta (O14920 whole entry): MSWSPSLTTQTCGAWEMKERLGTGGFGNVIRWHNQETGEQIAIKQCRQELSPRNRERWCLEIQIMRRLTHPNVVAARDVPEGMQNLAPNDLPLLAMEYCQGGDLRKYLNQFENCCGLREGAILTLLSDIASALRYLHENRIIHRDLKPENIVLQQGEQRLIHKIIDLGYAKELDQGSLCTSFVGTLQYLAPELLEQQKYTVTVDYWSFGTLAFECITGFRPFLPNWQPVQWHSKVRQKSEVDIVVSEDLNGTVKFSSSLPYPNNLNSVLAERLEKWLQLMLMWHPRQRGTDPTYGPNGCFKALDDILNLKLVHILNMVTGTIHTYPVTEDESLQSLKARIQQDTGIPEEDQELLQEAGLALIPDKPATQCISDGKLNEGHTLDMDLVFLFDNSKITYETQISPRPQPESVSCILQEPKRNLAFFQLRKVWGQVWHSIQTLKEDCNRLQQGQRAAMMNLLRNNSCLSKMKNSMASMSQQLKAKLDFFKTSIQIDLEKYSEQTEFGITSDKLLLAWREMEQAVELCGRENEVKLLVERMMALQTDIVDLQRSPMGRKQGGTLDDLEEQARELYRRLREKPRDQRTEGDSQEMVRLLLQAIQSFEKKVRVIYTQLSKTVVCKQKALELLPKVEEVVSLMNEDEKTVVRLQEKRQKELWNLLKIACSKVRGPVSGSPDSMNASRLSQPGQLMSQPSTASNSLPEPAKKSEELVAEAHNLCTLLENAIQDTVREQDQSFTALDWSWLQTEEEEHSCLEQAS
# Chain of Ephrin type-A receptor 2 (P29317 whole entry): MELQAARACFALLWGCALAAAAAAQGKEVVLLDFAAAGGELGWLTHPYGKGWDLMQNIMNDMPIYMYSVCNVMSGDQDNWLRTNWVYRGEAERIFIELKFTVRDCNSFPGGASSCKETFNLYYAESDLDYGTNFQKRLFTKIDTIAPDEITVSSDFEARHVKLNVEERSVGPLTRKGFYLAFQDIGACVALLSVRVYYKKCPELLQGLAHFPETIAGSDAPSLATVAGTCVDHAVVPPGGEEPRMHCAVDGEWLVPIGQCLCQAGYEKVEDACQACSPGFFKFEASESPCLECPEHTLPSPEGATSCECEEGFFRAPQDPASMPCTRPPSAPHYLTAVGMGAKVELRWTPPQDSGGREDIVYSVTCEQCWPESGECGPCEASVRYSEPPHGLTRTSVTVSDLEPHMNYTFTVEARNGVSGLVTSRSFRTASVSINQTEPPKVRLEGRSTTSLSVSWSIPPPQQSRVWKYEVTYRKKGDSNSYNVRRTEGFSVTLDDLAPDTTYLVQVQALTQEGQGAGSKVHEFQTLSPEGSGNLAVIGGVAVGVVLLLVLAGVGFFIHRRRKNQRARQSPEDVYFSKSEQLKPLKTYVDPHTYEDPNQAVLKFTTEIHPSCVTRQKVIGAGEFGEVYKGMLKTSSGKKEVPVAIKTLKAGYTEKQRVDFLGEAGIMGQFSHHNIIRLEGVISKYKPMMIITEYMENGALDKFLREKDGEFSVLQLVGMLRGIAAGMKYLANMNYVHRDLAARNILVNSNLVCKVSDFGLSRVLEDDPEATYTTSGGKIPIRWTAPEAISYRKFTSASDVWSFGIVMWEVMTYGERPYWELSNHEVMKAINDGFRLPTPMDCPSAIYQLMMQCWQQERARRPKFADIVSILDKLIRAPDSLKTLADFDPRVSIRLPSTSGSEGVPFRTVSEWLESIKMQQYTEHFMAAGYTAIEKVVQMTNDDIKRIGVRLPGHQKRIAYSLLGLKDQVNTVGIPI
structure (smiles),measurement,setting,value
CCC(C)NC(=O)c1c(N)n(CCCOC)c2nc3ccccc3nc12 (stereo unspecified),IC50,[1],> 50 µM (not active)
same,IC50,[2],0.802 µM (active)
CC(=NNC(=N)N)c1cc(NC(=O)NCCCCCCNC(=O)Nc2cc(C(C)=NNC(=N)N)cc(C(C)=NNC(=N)N)c2)cc(C(C)=NNC(=N)N)c1,Ki,[3],0.501 µM (active)
same,Ki,Aurora kinase A,5.01 µM (active)
same,Ki,[4],> 7.94 µM (inactive)
same,Ki,[5],> 7.94 µM (inactive)
same,Ki,[6],2 µM (active)
same,Ki,Ephrin type-A receptor 2,> 3.16 µM (inactive)
same,Ki,[7],> 6.31 µM (inactive)
same,Ki,[8],> 3.16 µM (inactive)
Cc1cc(N)c2cc(NC(=O)/C=C/c3ccccc3Cl)ccc2n1,EC50,Insulin-degrading enzyme,> 54.7 µM (inactive)
